We go through 5 molecules from patent publication US4197312A, “Alkali metal and alkaline earth metal salts of benzoylacetonitriles” (American Cyanamid Company, priority 1978, dated 1980).

The test system of assay [1] is Adjuvant induced arthritis. Nature of the assay: Adjuvant induced arthritis in the rat (primary lesion, paw swelling). Conditions: once daily days 0 to 13. Type of assay: in vivo, rat (Royal Hart, Wistar strain). On the procedure:
Adjuvant induced arthritis in the rat
Groups of three Royal Hart, Wistar strain rats weighing 200±10 g. each were injected intradermally in the right hind paw with Freund's adjuvant (dried human tubercle bacilli in a mineral oil vehicle) at a dose of 2 mg./kg. of body weight. The test compounds were administered orally in a 1.5% starch vehicle at various doses once daily on days 0 to 13 post challenge. Control rats were treated in a similar manner, but given only starch vehicle. On the 14th and 21st day post challenge the diameter of the injected paw was measured by micrometer caliper. The volume of inflamed paws were estimated from these measurements and the effects of each compound are expressed as percent inhibition of swelling was compared to controls. Table I records the results of these tests conducted with representative compounds of this invention and known anti-inflammatory agents. The active compounds of this invention suppress the progression of the arthritis and associated joint deterioration.

In assay [2] the test system is arthritic paw swelling; joint and bone deterioration. The settings on record: literature (S. Wong et al.; G. R. Bobalick et al.); cited from earlier work.

Each structure is given as a SMILES string.

Turning to `CC(=O)Oc1ccccc1C(=O)O` [Aspirin], the “(Primary Lesion) % Inhibition of Swelling Day 14” value amounted to 23% in assay [1] (oral 50 mg./kg.), 36% in assay [1] (oral 100 mg./kg.), 48% in assay [1] (oral 200 mg./kg.) and 73% in assay [1] (oral 400 mg./kg.). The “(Primary Lesion) % Inhibition of Swelling Day 21” value in assay [1] (oral 50 mg./kg.) worked out at 3%; in assay [1] (oral 100 mg./kg.) it was 13%; in assay [1] (oral 200 mg./kg.), 27%; in assay [1] (oral 400 mg./kg.), 48%.

For `COc1ccc2c(c1)c(CC(=O)O)c(C)n2C(=O)c1ccc(Cl)cc1` [Indomethacin], the “(Primary Lesion) % Inhibition of Swelling Day 14” value in assay [1] (oral 0.25 mg./kg.) was 30%; in assay [1] (oral 0.5 mg./kg.), 40%; in assay [1] (oral 1 mg./kg.), 46%; in assay [1] (oral 2 mg./kg.), 51%. Further, the “(Primary Lesion) % Inhibition of Swelling Day 21” value in assay [1] (oral 0.25 mg./kg.) is 4%; in assay [1] (oral 0.5 mg./kg.), 20%; in assay [1] (oral 1 mg./kg.) it was 19%; in assay [1] (oral 2 mg./kg.), 24%. For the same molecule, the arthritic paw swelling entry in assay [2] is “inhibit arthritic paw swelling”. Besides, the “joint and bone deterioration” value in assay [2] was “prevent joint and bone deterioration”.

For `CCCCC1C(=O)N(c2ccccc2)N(c2ccccc2)C1=O` [Phenylbutazone], the “(Primary Lesion) % Inhibition of Swelling Day 14” value in assay [1] (oral 18.5 mg./kg.) is 31%; in assay [1] (oral 37.5 mg./kg.), 56%; in assay [1] (oral 75 mg./kg.), 62%; in assay [1] (oral 150 mg./kg.), 75%. In addition, the “(Primary Lesion) % Inhibition of Swelling Day 21” value in assay [1] (oral 18.5 mg./kg.) was 7%; in assay [1] (oral 37.5 mg./kg.) it was 14%; in assay [1] (oral 75 mg./kg.), 28%; in assay [1] (oral 150 mg./kg.), 44%.

For `N#CCC(=O)c1ccccc1.[Na]` [Benzoylacetonitrile sodium salt, Benzoylacetonitrile, sodium salt], in assay [1] (oral 50 mg./kg.), the “(Primary Lesion) % Inhibition of Swelling Day 14” value was determined as 59% and the “(Primary Lesion) % Inhibition of Swelling Day 21” value is reported as 45%.

Regarding `N#CCC(=O)c1ccc(F)cc1.[Na]` [p-Fluorobenzoylacetonitrile sodium salt, p-Fluorobenzoylacetonitrile, sodium salt], in assay [1] (oral 50 mg./kg.), the “(Primary Lesion) % Inhibition of Swelling Day 14” value was found to be 53% and the “(Primary Lesion) % Inhibition of Swelling Day 21” value is given as 32%.
